# In patent US20250176599A1, “FLAVOR COMPOSITION AND FOOD AND BEVERAGE” (TAKASAGO INTERNATIONAL CORPORATION, priority 2021, published 2025):
# Experiments:
# [1] = Overall conclusion of the sensory evaluation across aqueous solutions I to VI
# Procedure: (§1) In ion-exchanged water, each degradation component was added to achieve the concentrations listed in Table 1, and aqueous solutions I to VI containing these degradation components were prepared.
# (§2) For the aforementioned aqueous solutions containing degradation components, nootkatone was added at the concentrations listed in Table 2 to confirm the intensity of the off-flavor (masking effect) in each sample and the intensity of the masking component itself (the impact on the flavor of the food and/or beverage itself).
# (§3) The test was conducted as follows. Eight experienced panelists were selected to conduct a sensory evaluation. The intensity of the off-flavor of the aqueous solution containing the degradation components derived from unsaturated fatty acids, without added masking components, was set as “Evaluation: 4.” The ion-exchanged water free of any degradation components was set as “Evaluation: 0.” The intensity of the off-flavor (masking effect) of each sample was then relatively evaluated according to the following evaluation criteria.
# (§4) • Off-flavor is strongly sensed: 4 points • Off-flavor is sensed: 3 points • Off-flavor is slightly sensed: 2 points • Off-flavor is barely sensed: 1 point • Off-flavor is not sensed at all: 0 points
# (§5) Also, the intensity of the masking components (impact on the flavor of the food and/or beverage itself) was absolutely evaluated according to the following evaluation criteria.
# (§6) • Masking component is strongly sensed: 4 points • Masking component is sensed: 3 points • Masking component is slightly sensed: 2 points • Masking component is barely sensed: 1 point • Masking component is not sensed at all: 0 points
# [2] = Sensory evaluation of aqueous solution III containing 1-octen-3-one 1 ppb: off-flavor intensity and masking component intensity; settings: 1-octen-3-one 1 ppb, average score 0-4
# Procedure: as §1, §2, §3, §4, §5, §6
# [3] = Sensory evaluation of aqueous solution II containing (E)-2-octenal 10 ppb: off-flavor intensity and masking component intensity; settings: (E)-2-octenal 10 ppb, average score 0-4
# Procedure: as §1, §2, §3, §4, §5, §6
# [4] = Sensory evaluation of aqueous solution I containing (E)-2-nonenal 1 ppb: off-flavor intensity and masking component intensity; settings: (E)-2-nonenal 1 ppb, average score 0-4
# Procedure: as §1, §2, §3, §4, §5, §6
# [5] = Sensory evaluation of aqueous solution V containing 1-octen-3-ol 10 ppb: off-flavor intensity and masking component intensity; settings: 1-octen-3-ol 10 ppb, average score 0-4
# Procedure: as §1, §2, §3, §4, §5, §6
# [6] = Sensory evaluation of aqueous solution IV containing 1,5-octadien-3-one 100 ppt: off-flavor intensity and masking component intensity; settings: aqueous solution IV, 1,5-octadien-3-one 100 ppt, average score 0-4
# Procedure: as §1, §2, §3, §4, §5, §6
# [7] = Sensory evaluation of aqueous solution VI containing 1,5-octadien-3-ol 10 ppb: off-flavor intensity and masking component intensity; settings: aqueous solution VI, 1,5-octadien-3-ol 10 ppb, average score 0-4
# Procedure: as §1, §2, §3, §4, §5, §6
smiles,measurement,setting,value
"CCCC(=O)C(C)=O [2,3-Hexanedione, 2,3-hexanedione]","concentration that masks the off-flavor and does not affect the flavor of the food and/or beverage itself, lower limit",[1],≥ 1 ppb
same,"concentration that masks the off-flavor and does not affect the flavor of the food and/or beverage itself, upper limit",[1],≤ 1 ppm
same,Off-Flavor Intensity,[2]; 1 ppb added,4.0 points
same,Off-Flavor Intensity,[2]; 1 ppm added,2.3 points
same,Off-Flavor Intensity,[2]; 5 ppb added,3.9 points
same,Off-Flavor Intensity,[2]; 5 ppm added,1.8 points
same,Off-Flavor Intensity,[2]; 10 ppb added,3.6 points
same,Off-Flavor Intensity,[2]; 10 ppm added,1.5 points
same,Off-Flavor Intensity,[2]; 50 ppb added,3.4 points
same,Off-Flavor Intensity,[2]; 100 ppb added,3.0 points
same,Off-Flavor Intensity,[2]; 500 ppb added,2.5 points
same,Off-Flavor Intensity,[3]; 1 ppb added,3.0 points
same,Off-Flavor Intensity,[3]; 1 ppm added,2.0 points
same,Off-Flavor Intensity,[3]; 5 ppb added,3.0 points
same,Off-Flavor Intensity,[3]; 5 ppm added,1.4 points
same,Off-Flavor Intensity,[3]; 10 ppb added,2.6 points
same,Off-Flavor Intensity,[3]; 10 ppm added,1.0 points
same,Off-Flavor Intensity,[3]; 50 ppb added,2.5 points
same,Off-Flavor Intensity,[3]; 100 ppb added,2.0 points
same,Off-Flavor Intensity,[3]; 500 ppb added,2.0 points
same,Off-Flavor Intensity,[4]; 1 ppb added,3.4 points
same,Off-Flavor Intensity,[4]; 1 ppm added,1.6 points
same,Off-Flavor Intensity,[4]; 5 ppb added,3.4 points
same,Off-Flavor Intensity,[4]; 5 ppm added,1.1 points
same,Off-Flavor Intensity,[4]; 10 ppb added,3.3 points
same,Off-Flavor Intensity,[4]; 10 ppm added,0.9 points
same,Off-Flavor Intensity,[4]; 50 ppb added,2.6 points
same,Off-Flavor Intensity,[4]; 100 ppb added,2.4 points
same,Off-Flavor Intensity,[4]; 500 ppb added,2.0 points
same,Off-Flavor Intensity,[5]; 1 ppb added,3.1 points
same,Off-Flavor Intensity,[5]; 1 ppm added,1.5 points
same,Off-Flavor Intensity,[5]; 5 ppb added,2.9 points
same,Off-Flavor Intensity,[5]; 5 ppm added,0.9 points
same,Off-Flavor Intensity,[5]; 10 ppb added,2.5 points
same,Off-Flavor Intensity,[5]; 10 ppm added,0.4 points
same,Off-Flavor Intensity,[5]; 50 ppb added,2.3 points
same,Off-Flavor Intensity,[5]; 100 ppb added,2.0 points
same,Off-Flavor Intensity,[5]; 500 ppb added,1.8 points
same,Off-Flavor Intensity,[6]; 1 ppb added,3.6 points
same,Off-Flavor Intensity,[6]; 1 ppm added,2.1 points
same,Off-Flavor Intensity,[6]; 5 ppb added,3.5 points
same,Off-Flavor Intensity,[6]; 5 ppm added,1.5 points
same,Off-Flavor Intensity,[6]; 10 ppb added,3.4 points
same,Off-Flavor Intensity,[6]; 10 ppm added,0.8 points
same,Off-Flavor Intensity,[6]; 50 ppb added,2.9 points
same,Off-Flavor Intensity,[6]; 100 ppb added,2.9 points
same,Off-Flavor Intensity,[6]; 500 ppb added,2.6 points
same,Off-Flavor Intensity,[7]; 1 ppb added,3.4 points
same,Off-Flavor Intensity,[7]; 1 ppm added,1.6 points
same,Off-Flavor Intensity,[7]; 5 ppb added,3.4 points
same,Off-Flavor Intensity,[7]; 5 ppm added,1.0 points
same,Off-Flavor Intensity,[7]; 10 ppb added,3.0 points
same,Off-Flavor Intensity,[7]; 10 ppm added,0.5 points
same,Off-Flavor Intensity,[7]; 50 ppb added,2.8 points
same,Off-Flavor Intensity,[7]; 100 ppb added,2.6 points
same,Off-Flavor Intensity,[7]; 500 ppb added,2.1 points
